Measured values taken from patent EP1439177B1, “Antiviral activity and resolution of 2-hydroxymethyl-5-(5-fluorocytosin-1-yl)-1,3-oxathiolane” (Emory University, priority 1991, dated 1992).
Where two headings read alike, the source gives them in different places.

Columns and labels:
[1] = test system: HIV-1 (strain LAV); assay: microbe, parasite or virus in culture; type: cell-based; settings: Human immunodeficiency virus 1, PBMC
Excerpt: It is often desirable to screen a number of racemic mixtures of nucleosides as a preliminary step to determine which warrant further resolution into enantiomerically enriched components and further evaluation of antiviral activity. The ability of nucleosides to inhibit HIV can be measured by various experimental techniques. The technique used herein, and described in detail below, measures the inhibition of viral replication in phytohemagglutinin (PHA) stimulated human peripheral blood mononuclear (PBM) cells infected with HIV-1 (strain LAV). The amount of virus produced is determined by measuring the virus-coded reverse transcriptase enzyme. The amount of enzyme produced is proportional to the amount of virus produced.
• A. Three-day-old phytohemagglutinin-stimulated PBM cells (10^6 cells/ml) from hepatitis B and HIV-1 seronegative healthy donors were infected with HIV-1 (strain LAV) at a concentration of about 100 times the 50% tissue culture infectious dose (TICD 50) per ml and cultured in the presence and absence of various concentrations of antiviral compounds. • B. Approximately one hour after infection, the medium, with the compound to be tested (2 times the final concentration in medium) or without compound, was added to the flasks (5 ml; final volume 10 ml). AZT was used as a positive control. • C. The cells were exposed to the virus (about 2 x 10^5 dpm/ml, as determined by reverse transcriptase assay) and then placed in a CO2 incubator. HIV-1 (strain LAV) was obtained from the Center for Disease Control, Atlanta, Georgia. The methods used for culturing the PBM cells, harvesting the virus and determining the reverse transcriptase activity were those described by McDougal et al. (J. Immun. Meth. 76, 171-183, 1985) and Spira et al. (J. Clin. Meth. 25, 97-99, 1987), except that fungizone was not included in the medium (see Schinazi, et al., Antimicrob. Agents Chemother. 32, 1784-1787 (1988); Id., 34:1061-1067 (1990)). • D. On day 6, the cells and supernatant were transferred to a 15 ml tube and centrifuged at about 900 g for 10 minutes. Five ml of supernatant were removed and the virus was concentrated by centrifugation at 40,000 rpm for 30 minutes (Beckman 70.1 Ti rotor). The solubilized virus pellet was processed for determination of the levels of reverse transcriptase. Results are expressed in dpm/ml of sampled supernatant. Virus from smaller volumes of supernatant (1 ml) can also be concentrated by centrifugation prior to solubilization and determination of reverse transcriptase levels.

[2] = test system: HIV-2; assay: microbe, parasite or virus in culture; settings: Human immunodeficiency virus 2, PBMC
Description: (§1) Cell lines were obtained from either human donors, AIDS Research and Reference Reagent Program, NIH, Rockville, Maryland, ATCC, or the Red Cross. The CEM thymidine kinase deficient cells were prepared by sequential passage of CEM cells in the presence of 5-bromo-2'-deoxyuridine.

[3] = test system: SIV; assay: microbe, parasite or virus in culture; settings: Simian immunodeficiency virus
Description: as §1

[4] = test system: FIV; assay: microbe, parasite or virus in culture; settings: Feline immunodeficiency virus, CRFK
Description: as §1

[5] = test system: HIV-1; assay: microbe, parasite or virus in culture
Description: as §1

[6] = in vivo; settings: rat, plasma, iv
[7] = Growth inhibition of mitogen-stimulated uninfected human PBM cells, trypan blue exclusion; type: cell-based; settings: human, pbm cells
[8] = test system: peripheral human bone marrow cells; assay: Toxicity to peripheral human bone marrow cells; type: cell-based; settings: concentrations up to 50 µM
[9] = in vivo; settings: rhesus monkey, 33.3 mg/kg; for clearance: CLT, I.V. 33.3 mg/kg
[10] = test system: human PBM cells; assay: Uptake of radiolabeled FTC into human PBM cells; type: in vitro ADME; settings: 10 µM radiolabeled FTC, 2 to 24 hours; Figure 7
Description: All studies were conducted in duplicate.

[11] = test system: HIV; assay: microbe, parasite or virus in culture; type: cell-based; settings: Human immunodeficiency virus 1
[12] = test system: other cell lines; assay: Toxicity to other cell lines; type: cell-based; settings: concentrations up to 200 µM
[13] = Chronic oral treatment of rodents, toxicity; type: in vivo; settings: oral doses of 85 mg/kg per day for at least two months
[14] = in vitro; settings: african green monkey, vero cells
[15] = in vitro; settings: human, cem cells
[16] = test system: human PBM cells; assay: Egress of radiolabeled FTC from human PBM cells; type: in vitro ADME; settings: 48 hours after the removal of the extracellular drug
Description: This study measures the time needed for intracellular levels of triphosphates to decline. Studies were conducted in duplicate. Uninfected cells (2 x 10^6 ml) were suspended in the appropriate medium supplemented with serum (10 ml per timepoint) and incubated at 37°C in a 5% CO2 incubator. The radiolabeled FTC concentration was 10 µM. After pulsing the cells with the labeled compound for 24 hours, the cells were thoroughly washed and then replenished with fresh medium without the antiviral drugs (0 hr). At 0, 2, 4, 6, 12, 24, and 48 hours (second incubation time), the cells were removed, and immediately extracted with 60% cold methanol/water. The extract was obtained by centrifugation and removal of the cell pellet. The extracts were lyophilized and then stored at -70°C. Prior to analysis, the material was resuspended in 250 microliters of HPLC buffer and immediately analyzed. Quantitation of intracellular parent drug and metabolic derivatives was conducted by HPLC, using either a Micromeritics or Hewlett-Packard model 1090 PHLC system with an anion exchange Partisel 10 SAX column (Whatman, Inc.), at a flow rate of 1 ml/min, 1 kpsi pressure, with UV detection at 262 nm. The mobile phase consisted of deionized water (A), 2 mM NaH2PO4/16 mM NaOAc (pH = 6.6) (B), 15 mM NaH2PO4/120.2 mM NaOAc (pH = 6.6) (C), and 100 mM NaH2PO4/800 mM NaOAc (pH = 6.6) (D). […]

[17] = target: HIV-RT (Human immunodeficiency virus type 1 group M subtype B, UniProt P04585); assay: DNA chain termination by sequencing analysis; type: biochemical
Description: (§2) Toxicity and pharmacokinetic studies confirm the usefulness of FTC as an antiviral agent for pharmaceutical administration. FTC and its enantiomers are nontoxic to peripheral human bone marrow cells at concentrations up to 50 µM and other cell lines at concentrations up to 200 µM. FTC-TP is a major intracellular metabolite in PBMC and HepG2 cells.

[18] = target: HIV-1 reverse transcriptase (RT); assay: Competitive inhibition of HIV-1 reverse transcriptase, poly(I)oligo(dC) template-primer; type: biochemical; settings: read-out: K1 (affinity), competitive inhibition
Description: as §2

Work on `Nc1nc(=O)n([C@@H]2CS[C@H](CO)O2)cc1F` (racemic) [(±)-FTC, (±)-β-D.L-2-hydroxymethyl-5-(5-fluorocytosin-1-yl)-1,3-oxathiolane] yielded an EC50 ([1]; read-out: Antiviral EC50) of 10 nM, an EC50 ([1]; read-out: activity in PBM cells) of roughly 10 nM and an EC50 [2] of 3.8 nM. It also gave an EC50 [3] of 4600 nM, an EC50 ([3]; C8166) of less than 8000 nM and an EC50 [4] of no more than 1000 nM. For the same molecule, the EC50 ([5]; Human immunodeficiency virus 1, CEM (HTLV1118) NIH) was 90 nM, the EC50 ([5]; Human immunodeficiency virus 1, CEM (LAV-1)) was 80 nM and the EC50 ([5]; Human immunodeficiency virus 1, CEM-TK(-), CEM-TK^(-) (LAV-1)) was 26 nM. It also gave an EC50 ([5]; Human immunodeficiency virus 1, MT2 (HTLV1118)) of 890 nM, an EC50 ([5]; Human immunodeficiency virus 1, PBMC, PBMC (LAV-1)) of 27 nM and a clearance ([6]; 10 mg/kg) of 16.5 mL/min/kg. For the same molecule, the half-life ([6]; 10 mg/kg) was 45.4 min, the MRT ([6]; 50 mg/kg) was 48 min and the clearance ([6]; 50 mg/kg) was 14.6 mL/min/kg. For the same molecule, the half-life ([6]; 50 mg/kg) was 48.9 min, the clearance ([6]; 100 mg/kg) was 13.8 mL/min/kg and the half-life ([6]; 100 mg/kg) was 58.1 min. For the same molecule, the CC50 at 144 h [7] was greater than 100000 nM, the toxicity [8] was “nontoxic” and the Vd ([9]; iv) was 2 L/kg. The clearance ([9]; iv, Mean of three monkeys) was 24.8 mL/min/kg, the clearance ([9]; iv, individual monkeys RUh, RMi, RJd) was 29 mL/min/kg and the bioavailability ([9]; po, F (bioavailability), P.O. 33.3 mg/kg, individual monkeys RUh, RMi, RJd) was 80%. The “uptake in human lymphocytes” value [10] was “readily taken up”, the IC50 [11] was 520 nM and the toxicity [12] was “nontoxic”. For the same molecule, the “toxicity of chronic treatment” value [13] was “not toxic”, the CC50 [14] was greater than 100000 nM and the CC50 [15] was greater than 100000 nM.
For `Nc1nc(=O)n([C@@H]2CS[C@H](COP(=O)(O)OP(=O)(O)OP(=O)(O)O)O2)cc1F` (racemic) [FTC-TP], the intracellular concentration [16] was 1 to 5 µM, the “DNA chain terminator (C-stops)” value [17] was “potent DNA chain terminator” and the Ki [18] was 200 nM.
